Where two headings read alike, the source gives them in different places.
Molecular target: μ-opioid receptor (Homo sapiens (Human), UniProt P35372)
Experiment: μ-opioid receptor [35S]GTPγS functional assay, HEK-293 or CHO cells
Assay type: biochemical
Conditions: HEK-293 or CHO cells; for EC50: read-out: GTPγS μ EC50; for Emax: relative to DAMGO
Procedure: [^35S]GTPγS functional assays were conducted using freshly thawed μ-receptor membranes prepared in-house from a cell line expressing recombinant opioid receptor in a HEK-293, CHO or U-2 OS cell background, or purchased from a commercial source (Perkin Elmer, Shelton, Conn.; or DiscovRx, Fremont, Calif.). Assay reactions were prepared by sequentially adding the following reagents to binding buffer (100 mM NaCl, 10 mM MgCl2, 20 mM HEPES, pH 7.4) on ice (final concentrations indicated): membrane protein (0.026 mg/mL), saponin ([…]), GDP ([…]) and [^35S]GTPγS (0.20 nM; Perkin Elmer, Shelton, Conn.). The prepared membrane solution (190 μl/well) was transferred to 96-shallow well polypropylene plates containing 10 μl of 20× concentrated stock solutions of the agonist [D-Ala^2, N-methyl-Phe^4 Gly-ol^5]-enkephalin (DAMGO) prepared in dimethyl sulfoxide (DMSO). Plates were incubated for 30 min at about 25° C. with shaking. Reactions were terminated by rapid filtration onto 96-well Unifilter GF/B filter plates (Perkin Elmer, Shelton, Conn.) using a 96-well tissue harvester (Perkin Elmer, Shelton, Conn.) followed by three filtration washes with 200 μl of ice-cold wash buffer (10 mM NaH2PO4, 10 mM Na2HPO4, pH 7.4). Filter plates were subsequently dried at 50° C. for 2-3 hr. BetaScint scintillation cocktail (Perkin Elmer, Shelton, Conn.) was added (50 μl/well) and plates were counted using a Packard Top-Count for 1 min/well. Data were analyzed using the sigmoidal dose-response curve fitting functions in GraphPad PRISM v. 3.0, or an in-house function for non-linear, sigmoidal dose-response curve-fitting.
μ GTP EC50 is the concentration of a compound providing 50% of the maximal response for the compound at a μ-opioid receptor.
μ GTP Emax (%) is the maximal effect elicited by a compound relative to the effect elicited by DAMGO, a standard p agonist. Generally, the μ GTP Emax (%) value measures the efficacy of a compound to treat or prevent pain or other Conditions.
In TABLE 4, activity response of certain Compounds of the Invention to the μ- and κ-opioid receptors was determined as described above for functional assays using HEK-293 or CHO cells.

SMILES	EC50	Emax	EC50 (bound given in uM)
CN1CC[C@@]2(C)c3cc(O)ccc3C[C@@H]1[C@@H]2N(C)CC1CCN(C(=O)C(C)(C)C)CC1 [Compound 52, 1-(4-((((2R,6S,11R)-8-hydroxy-3,6-dimethyl-1,2,3,4,5,6-hexahydro-2,6-methanobenzo[d]azocin-11-yl)(methyl)amino)methyl)piperidin-1-yl)-2,2-dimethylpropan-1-one]	0.00122 ± 0.0002 µM	31.3 ± 0.88%	
CN1CC[C@@]2(C)c3cc(O)ccc3C[C@@H]1[C@@H]2N(C)CC1CCN(S(C)(=O)=O)CC1 [Compound 54, (2R,6S,11R)-3,6-dimethyl-11-(methyl((1-(methylsulfonyl)piperidin-4-yl)methyl)amino)-1,2,3,4,5,6-hexahydro-2,6-methanobenzo[d]azocin-8-ol]	0.00544 ± 0.00235 µM	74 ± 3.15%	
CCS(=O)(=O)N1CCC(CN(C)[C@H]2[C@H]3Cc4ccc(O)cc4[C@]2(C)CCN3C)CC1 [Compound 56, (2R,6S,11R)-11-(((1-(ethylsulfonyl)piperidin-4-yl)methyl)(methyl)amino)-3,6-dimethyl-1,2,3,4,5,6-hexahydro-2,6-methanobenzo[d]azocin-8-ol]	0.0967 ± 0.00987 µM	62 ± 1.53%	
CN1CC[C@@]2(C)c3cc(O)ccc3C[C@@H]1[C@@H]2N(C)CC1CCN(S(=O)(=O)C2CC2)CC1 [Compound 57, (2R,6S,11R)-11-(((1-(cyclopropylsulfonyl)piperidin-4-yl)methyl)(methyl)amino)-3,6-dimethyl-1,2,3,4,5,6-hexahydro-2,6-methanobenzo[d]azocin-8-ol]	0.0905 ± 0.0181 µM	43 ± 1.53%	
CN1CC[C@@]2(C)c3cc(O)ccc3C[C@@H]1[C@H]2N(CCc1ccc(F)cc1)CC(=O)O [Compound 72, N-(4-fluorophenethyl)-N-((2R,6S,11S)-8-hydroxy-3,6-dimethyl-1,2,3,4,5,6-hexahydro-2,6-methanobenzo[d]azocin-11-yl)glycine]	0.338 ± 0.0609 µM	101 ± 2.91%	
CN1CC[C@@]2(C)c3cc(O)ccc3C[C@@H]1[C@@H]2N(CCc1ccc(F)cc1)CC(=O)O [Compound 73, N-(4-fluorophenethyl)-N-((2R,6S,11R)-8-hydroxy-3,6-dimethyl-1,2,3,4,5,6-hexahydro-2,6-methanobenzo[d]azocin-11-yl)glycine]	0.0572 ± 0.0127 µM	68.8 ± 1.77%	
CN1CC[C@@]2(C)c3cc(O)ccc3C[C@@H]1[C@@H]2N(CCc1ccc(F)cc1)CC(N)=O [Compound 74, 2-((4-fluorophenethyl)-((2R,6S,11R)-8-hydroxy-3,6-dimethyl-1,2,3,4,5,6-hexahydro-2,6-methanobenzo[d]azocin-11-yl)amino)acetamide]	0.00112 ± 0.00017 µM	83.2 ± 3.47%	
CN1CC[C@@]2(C)c3cc(O)ccc3C[C@@H]1[C@H]2N(CCO)CCc1ccc(F)cc1 [Compound 77, (2R,6S,11S)-11-((4-fluorophenethyl)(2-hydroxyethyl)amino)-3,6-dimethyl-1,2,3,4,5,6-hexahydro-2,6-methanobenzo[d]azocin-8-ol]	0.00796 ± 0.00069 µM	87 ± 1.73%	
CN1CC[C@@]2(C)c3cc(O)ccc3C[C@@H]1[C@@H]2N(C)C(=O)Nc1nc2ccc(F)cc2s1 [Compound 81, 3-(6-fluorobenzo[d]thiazol-2-yl)-1-((2R,6S,11R)-8-hydroxy-3,6-dimethyl-1,2,3,4,5,6-hexahydro-2,6-methanobenzo[d]azocin-11-yl)-1-methylurea]		-1%	> 20 µM
CN1CC[C@@]2(C)c3cc(O)ccc3C[C@@H]1[C@H]2N(C)C(=O)Nc1nc2cc(F)ccc2s1 [Compound 82, 3-(5-fluorobenzo[d]thiazol-2-yl)-1-((2R,6S,11S)-8-hydroxy-3,6-dimethyl-1,2,3,4,5,6-hexahydro-2,6-methanobenzo[d]azocin-11-yl)-1-methylurea]		1%	> 20 µM
CCN(C(=O)Nc1ccc(C#N)cc1)[C@H]1[C@H]2Cc3ccc(O)cc3[C@]1(C)CCN2C [Compound 91, 3-(4-cyanophenyl)-1-ethyl-1-((2R,6S,11R)-8-hydroxy-3,6-dimethyl-1,2,3,4,5,6-hexahydro-2,6-methanobenzo[d]azocin-11-yl)urea]	0.0463 ± 0.0041 µM	75.3 ± 2.19%	
